For assay [1], the target named is DCN1 (DCUND1) protein PONY domain (Homo sapiens (Human), UniProt Q96GG9). Kind of assay: TR-FRET assay, DCN1 binding with FAM-labeled probe. The procedure, abridged: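 First, the E. coli-derived PONY domain was biotinylated and paired with streptavidin Tb cryptate. Compounds in 0.1% DMSO were then added to DCN1 and FAM-probe (5 nM/20 nM, or 0.31 nM/900 nM total with 800 nM unlabelled) in TritonX, 200 mM NaCl buffer. Finally, TR-FRET ratios were recorded at 1, 5 and 24 hrs.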

Assay [2] has as its system Cullin-3 (CUL3) neddylation. Kind of assay: AlphaLISA assay for Cullin-3 (CUL3) neddylation in TF 1 cells. Particulars: Homo sapiens, 3 hours treatment. The format is cell-based. The procedure, abridged:
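TF 1 cells in unsupplemented IMDM treated with compound concentrations for 3 h, then lysed. CUL3 neddylation detected by AlphaLISA (biotinylated anti-NEDD8, anti-CUL3 acceptor beads overnight, streptavidin donor beads 1 h); normalized to vehicle (0%) and 1 μM DI-1548 (100%), IC50 from Hill fits.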
Background: Bead proximity is the source of the signal in Alpha formats.

[3] abbreviates: 24 hr after treatment with compound, read-out: TR FRET IC50 24 hr.
The mark [4] stands for this setting: TR FRET IC50 1 hr (nM), 1 hr after treatment with compound.
[5] abbreviates: read-out: TR FRET IC50 1 hr, 1 hr after treatment with compound.

SMILES strings stand for the structures. Like-named read-outs stand apart in the source and are kept apart here.

Sequence of DCN1 (DCUND1) protein PONY domain (Q96GG9 60-248): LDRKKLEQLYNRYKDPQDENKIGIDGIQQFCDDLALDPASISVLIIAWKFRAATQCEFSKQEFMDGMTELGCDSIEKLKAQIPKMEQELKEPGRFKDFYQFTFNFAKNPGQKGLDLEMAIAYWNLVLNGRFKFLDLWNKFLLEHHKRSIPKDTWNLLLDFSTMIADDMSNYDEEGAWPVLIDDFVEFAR

As a reminder, the IC50 is the midpoint of a concentration-inhibition curve. `CCN1C(=O)[C@H](NC(=O)c2cccc(C(F)(F)F)c2)[C@H](c2ccc(F)cc2)c2c(C(=O)N3CCC[C@H]3C#N)nn(-c3cccc(OCCCN(C)C4COC4)c3)c21` [Compound I-480, N-((4R,5R)-3-((S)-2-cyanopyrrolidine-1-carbonyl)-7-ethyl-4-(4-fluorophenyl)-1-(3-(3-(methyl(oxetan-3-yl)amino)propoxy)phenyl)-6-oxo-4,5,6,7-tetrahydro-1H-pyrazolo[3,4-b]pyridin-5-yl)-3-(trifluoromethyl)benzamide]: the concentration for half-maximal inhibition (IC50) in assay [1] (setting [3]) was 1000 to 3000 nM; in assay [1] (setting [4]), 1000 to 3000 nM; in assay [2] (TF-1, 3 h) it was more than 1000 nM.
In the case of `CCN1C(=O)[C@H](NC(=O)c2cccc(C(F)(F)F)c2)[C@H](c2ccc(F)cc2)c2c([C@@H](C)NC#N)nn(C3CCOCC3)c21` [Compound I-597], the IC50 in assay [1] (setting [3]) is 1000 to 3000 nM; in assay [1] (setting [4]), 1000 to 3000 nM; in assay [2] (TF-1, 3 h), more than 1000 nM.
For the compound `CCN1C(=O)[C@@H](NC(=O)c2cccc(C(F)(F)F)c2)[C@@H](c2ccc(F)cc2)c2c(C(=O)N3CCC[C@H]3C#N)nn(-c3cccc(OCCCN4CC5(COC5)C4)c3)c21` (stereo in doubt) [Compound I-615], the IC50 in assay [1] (setting [3]) was 200 to 1000 nM; in assay [1] (setting [4]), 1000 to 3000 nM; in assay [2] (TF-1, 3 h), more than 1000 nM.
Consider `CCN1C(=O)[C@@H](NC(=O)c2cccc(C(F)(F)F)c2)[C@@H](c2ccc(F)cn2)c2c(C(=O)N3CCC[C@H]3C#N)nn(-c3ccccc3)c21` (mixture of isomers) [Compound I-409], for which the IC50 in assay [1] (setting [3]) was not above 200 nM; in assay [1] (setting [4]) it was 1000 to 3000 nM; in assay [2] (TF-1, 3 h), 100 to 1000 nM.
`CCN1C(=O)[C@@H](NC(=O)c2csc(C)c2)[C@@H](C2CC2)c2c(C(=O)N3[C@H](C#N)C[C@H]4C[C@H]43)nn(C3CCOCC3)c21` [Compound I-481]: the IC50 in assay [1] (setting [3]) was not above 200 nM; in assay [1] (setting [5]) it was not above 200 nM; in assay [2] it was not above 100 nM.
Turning to `CCN1C(=O)[C@H](NC(=O)c2cccc(C(F)(F)F)c2)[C@H](c2ccc(F)cc2)c2c(C(=O)N3CCC[C@H]3C#N)nn(-c3cccc(OCCCN4CCC5(CC4)COC5)c3)c21` [Compound I-581], the IC50 in assay [1] (setting [3]) was 200 to 1000 nM; in assay [1] (setting [4]), 1000 to 3000 nM; in assay [2] (TF-1, 3 h), more than 1000 nM.
`CCN1C(=O)C(NC(=O)c2cccc(C(F)(F)F)c2)[C@@H](C2CC2)c2c(C(=O)N3CC(NC)CC3C#N)nn(C3CCOCC3)c21` (stereo in doubt) [Compound I-420, N-[(4S,5S)-3-[(2S,4R*)-2-cyano-4-(methylamino)pyrrolidine-1-carbonyl]-4-cyclopropyl-7-ethyl-1-(oxan-4-yl)-6-oxo-4H,5H-pyrazolo[3,4-b]pyridin-5-yl]-3-(trifluoromethyl)benzamide]: the IC50 was 1000 to 3000 nM in assay [1] (setting [3]); 1000 to 3000 nM in assay [1] (setting [4]); more than 1000 nM in assay [2] (TF-1, 3 h).
For `CCN1C(=O)[C@@H](NC(=O)c2ccc3nonc3c2)[C@@H](C2CC2)c2c(C(=O)N3[C@H](C#N)C[C@H]4C[C@H]43)nn(C3CCOCC3)c21` [Compound I-668], the 50% inhibitory concentration (IC50) in assay [1] (setting [3]) is 1000 to 3000 nM; in assay [1] (setting [4]) it was 1000 to 3000 nM; in assay [2] (TF-1, 3 h) it was 100 to 1000 nM.
As for `CCN1C(=O)[C@@H](NC(=O)c2cccc(C(F)(F)F)c2)[C@@H](c2ccc(F)cc2)c2c(CN(C#N)CCCN(C)C3COC3)nn(-c3ccccc3)c21` [Compound I-646], the IC50 in assay [1] (setting [3]) is not above 200 nM; in assay [1] (setting [5]), not above 200 nM; in assay [2] (TF-1, 3 h) it was not above 100 nM.
As to `CCN1C(=O)[C@@H](NC(=O)c2cccc(C(F)(F)F)c2)[C@@H](c2ccc(F)cc2)c2c(C(=O)N3[C@H](C)CC[C@H]3C#N)nn(C3CCOCC3)c21` [Compound I-416], the IC50 was in the range of 200 to 1000 nM in assay [1] (setting [3]); 1000 to 3000 nM in assay [1] (setting [4]); 100 to 1000 nM in assay [2] (TF-1, 3 h).
As for `CCN1C(=O)[C@H](NC(=O)c2cccc(C(F)(F)F)c2)[C@H](C2CC2)c2c(C(=O)N(C)C(C)C#N)nn(-c3ccccc3)c21` (stereo partly drawn) [Compound I-676], the IC50 in assay [1] (setting [3]) is 1000 to 3000 nM; in assay [1] (setting [4]), 1000 to 3000 nM; in assay [2] (TF-1, 3 h), more than 1000 nM.

For the origin of these results see patent US20250163057A1, “DCN-1 MODULATING COMPOUNDS AND METHODS OF USE THEREOF” (Cellarity, Inc., priority 2023, published 2025).
